This is an account of results in US20260001893A1, “SMALL MOLECULE MODULATORS OF STAT6” (Gilead Sciences, Inc., priority 2024, published 2026).

Assay [1] deals with T1, Human STAT6 (truncated, aa122-658, with N-terminal His-tag) (Homo sapiens, UniProt P42226).
T1 construct: Human STAT6 (truncated, aa122-658, with N-terminal His-tag, expressed in insect cells); His-tag (N); made in house; host or cells: insect cells
T1 sequence (P42226 122-658): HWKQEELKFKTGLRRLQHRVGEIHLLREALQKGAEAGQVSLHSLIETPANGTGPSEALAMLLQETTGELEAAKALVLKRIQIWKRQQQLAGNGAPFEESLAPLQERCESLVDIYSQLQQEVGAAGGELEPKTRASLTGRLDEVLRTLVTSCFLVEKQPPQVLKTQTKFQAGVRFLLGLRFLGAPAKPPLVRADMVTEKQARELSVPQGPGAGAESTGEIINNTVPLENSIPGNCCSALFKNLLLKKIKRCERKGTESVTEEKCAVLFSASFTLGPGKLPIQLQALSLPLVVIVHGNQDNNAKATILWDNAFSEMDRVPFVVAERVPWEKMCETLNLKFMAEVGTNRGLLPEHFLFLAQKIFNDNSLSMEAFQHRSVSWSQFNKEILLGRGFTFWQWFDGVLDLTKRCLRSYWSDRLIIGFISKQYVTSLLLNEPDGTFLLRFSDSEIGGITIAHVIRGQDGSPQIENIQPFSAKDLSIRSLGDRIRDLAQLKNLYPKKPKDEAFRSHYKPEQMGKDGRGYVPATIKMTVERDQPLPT
As to the kind of experiment: Surface plasmon resonance (SPR) assay, binding to human STAT6. The conditions noted are these: Biacore 8K, 25° C, immobilized human STAT6 on CM5 chip, multi-cycle kinetics; geometric mean. Put shortly:
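Truncated STAT6 (aa122-658, N-His, insect-cell expressed) was amine-coupled to a CM5 chip, and compounds were run as multi-cycle kinetics at 25 °C in PBS-P+ with 2% DMSO (60 s contact, up to 300 s dissociation). KD came from steady-state isotherms at a late report point, fitted with free and with fixed theoretical Rmax (1:1).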

In assay [2] the test system is Eotaxin-3 (CCL26) release in human whole blood stimulated with IL-4. As to the kind of experiment: Human whole blood eotaxin-3 assay (IL-4 stimulated eotaxin-3 release). The format is cell-based. The conditions noted are these: Homo sapiens, 48 h, human whole blood stimulated with recombinant human IL-4, 48 h, geometric mean; for EC50: inhibition of eotaxin-3 release, given for test compounds with >80% Emax. Put shortly: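 Lithium-heparin human whole blood was preincubated with compound (4-fold serial dilution, 0.5% DMSO final) for 2 h at 37° C, then stimulated with recombinant human IL-4 at […] final for 48 h. Eotaxin-3 (CCL26) in the supernatant was measured by MSD immunoassay.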

In general, Kd refers to the constant that tells how readily two partners part at equilibrium. As usually defined, the EC50 is the concentration needed to bring the measured effect to its halfway point. For the molecule `CNc1ccn(-c2ccnc3c2cc(CN2CCC(c4ccc(C(=O)N(C)C)cc4OC)CC2)n3C)c(=O)c1` [Example 1d36, 3-Methoxy-N,N-dimethyl-4-[1-[[1-methyl-4-[4-(methylamino)-2-oxo-1-pyridyl]pyrrolo[2,3-b]pyridin-2-yl]methyl]-4-piperidyl]benzamide], the affinity in assay [1], expressed as Kd, was 51.6 nM. Also, the EC50 in assay [2] came out at 260 nM.

`CN(C)C(=O)c1ccc(C2CCN(Cc3cc4c(-n5ccc(N)c(COC(C)(C)C)c5=O)ccnc4n3C)CC2)cc1` [Example 1d39, 4-[1-[[4-[4-Amino-3-(tert-butoxymethyl)-2-oxo-1-pyridyl]-1-methyl-pyrrolo[2,3-b]pyridin-2-yl]methyl]-4-piperidyl]-N,N-dimethyl-benzamide] registered a dissociation constant (Kd) in assay [1] of 98.7 nM. Also, the EC50 in assay [2] was 961 nM.

In assay [1], `CNc1ccn(-c2ccnc3c2cc(CN2CCC(c4ccc(C(=O)N(C)C)cc4)CC2=O)n3C)c(=O)c1` (stereo not drawn) [Example 1f8, N,N-Dimethyl-4-[1-[[1-methyl-4-[4-(methylamino)-2-oxo-1-pyridyl]pyrrolo[2,3-b]pyridin-2-yl]methyl]-2-oxo-4-piperidyl]benzamide] displayed a Kd of 134 nM. Also, the EC50 in assay [2] turned out to be 957 nM.

As to `CN(C)C(=O)c1ccc(C2CCN(Cc3cc4c(-n5ccc6[nH]ncc6c5=O)ccnc4n3C)CC2)cc1` [Example 1j27, N,N-Dimethyl-4-[1-[[1-methyl-4-(4-oxo-1H-pyrazolo[4,3-c]pyridin-5-yl)pyrrolo[2,3-b]pyridin-2-yl]methyl]-4-piperidyl]benzamide], the affinity in assay [1], expressed as Kd, was 9.79 nM. Further, the EC50 in assay [2] worked out at 44.7 nM.

The molecule `CNc1ccn(-c2ccnc3c2cc(CN2CCN(c4ccc(C(=O)N(C)C)cc4C)CC2)n3C)c(=O)c1` [Example 1m6, N,N,3-Trimethyl-4-(4-((1-methyl-4-(4-(methylamino)-2-oxopyridin-1 (2H)-yl)-1H-pyrrolo[2,3-b]pyridin-2-yl)methyl)piperazin-1-yl)benzamide] displayed a Kd in assay [1] of 16.6 nM. For the same molecule, in assay [2], the EC50 was 74.7 nM.

In turn, `CNc1ccn(-c2ccnc3c2cc(CN2CC=C(c4ccc(C(=O)N(C)C)cc4C)CC2)n3C)c(=O)c1` [Example 1m9, N,N,3-Trimethyl-4-(1-((1-methyl-4-(4-(methylamino)-2-oxopyridin-1 (2H)-yl)-1H-pyrrolo[2,3-b]pyridin-2-yl)methyl)-1,2,3,6-tetrahydropyridin-4-yl)benzamide] came in with a Kd in assay [1] of 11.8 nM. In addition, in assay [2], the EC50 came to 32.1 nM.

Turning to `[2H]C([2H])([2H])N(C(=O)c1ccc(C2=CCN(Cc3cc4c(-n5ccc(NC)cc5=O)ccnc4n3C)CC2)c(C)c1)C([2H])([2H])[2H]` [Example 1m10, 3-Methyl-N,N-bis(methyl-d3)-4-(1-((1-methyl-4-(4-(methylamino)-2-oxopyridin-1 (2H)-yl)-1H-pyrrolo[2,3-b]pyridin-2-yl)methyl)-1,2,3,6-tetrahydropyridin-4-yl)benzamide], the Kd in assay [1] turned out to be 9.57 nM. For the same molecule, the EC50 in assay [2] turned out to be 37.4 nM.

`CNc1ccn(-c2ccnc3c2cc(CN2CC=C(c4c(C)cc(C(=O)N(C)C)cc4C)CC2)n3C)c(=O)c1` [Example 1m12, N,N,3,5-Tetramethyl-4-(1-((1-methyl-4-(4-(methylamino)-2-oxopyridin-1 (2H)-yl)-1H-pyrrolo[2,3-b]pyridin-2-yl)methyl)-1,2,3,6-tetrahydropyridin-4-yl)benzamide] returned a Kd in assay [1] of 8.66 nM. The EC50 in assay [2] is 15.6 nM.

`CNc1ccn(-c2ccnc3c2cc(CN2CCN(c4ccc(C(=O)N(C)C)cc4C)C[C@@H]2C)n3C)c(=O)c1` [Example 1m18, (S)—N,N,3-Trimethyl-4-(3-methyl-4-((1-methyl-4-(4-(methylamino)-2-oxopyridin-1 (2H)-yl)-1H-pyrrolo[2,3-b]pyridin-2-yl)methyl)piperazin-1-yl)benzamide] had a Kd in assay [1] of 18.9 nM. The EC50 in assay [2] was found to be 53.6 nM.

`CNc1ccn(-c2ccnc3c2cc(CN2CCN(c4ccc(C(=O)N(C)C)cc4C)C[C@H]2C)n3C)c(=O)c1` [Example 1m19, (R)—N,N,3-Trimethyl-4-(3-methyl-4-((1-methyl-4-(4-(methylamino)-2-oxopyridin-1 (2H)-yl)-1H-pyrrolo[2,3-b]pyridin-2-yl)methyl)piperazin-1-yl)benzamide] returned a Kd in assay [1] of 23.5 nM. In addition, in assay [2], the EC50 came out at 122 nM.

For orientation: Emax means the maximal effect, on the per cent scale that the assay sets. `CNc1ccn(-c2ccnc3c2cc(CN2CC=C(c4ccc(C(=O)N(C)C)cc4)CC2)n3C)c(=O)c1` [Example 1m35, N,N-Dimethyl-4-(1-((1-methyl-4-(4-(methylamino)-2-oxopyridin-1 (2H)-yl)-1H-pyrrolo[2,3-b]pyridin-2-yl)methyl)-1,2,3,6-tetrahydropyridin-4-yl)benzamide] returned an equilibrium dissociation constant (Kd) in assay [1] of 35 nM. Also, the Emax in assay [2] (given for test compounds with <80% Emax) was in the range of 40 to 50%.

`CNc1ccn(-c2ccnc3c2cc(CN2CC=C(c4ccc(C(=O)N(C)C)cc4OC)CC2)n3C)c(=O)c1` [Example 1m54, 3-Methoxy-N,N-dimethyl-4-(1-((1-methyl-4-(4-(methylamino)-2-oxopyridin-1 (2H)-yl)-1H-pyrrolo[2,3-b]pyridin-2-yl)methyl)-1,2,3,6-tetrahydropyridin-4-yl)benzamide] returned a Kd in assay [1] of 18.5 nM. The EC50 in assay [2] came to 190 nM.

For the molecule `CNc1ccn(-c2ccnc3c2cc(CN2CC=C(c4ccc(C(=O)N(C)C)cc4C(F)(F)F)CC2)n3C)c(=O)c1` [Example 1m59, N,N-Dimethyl-4-(1-((1-methyl-4-(4-(methylamino)-2-oxopyridin-1 (2H)-yl)-1H-pyrrolo[2,3-b]pyridin-2-yl)methyl)-1,2,3,6-tetrahydropyridin-4-yl)-3-(trifluoromethyl)benzamide], the equilibrium dissociation constant (Kd) in assay [1] came to 14.3 nM. Further, in assay [2], the EC50 turned out to be 96.1 nM.

In assay [1], `CNc1ccn(-c2ccnc3c2cc(CN2CC=C(c4ccc(C(=O)N(C)C)cc4Cl)CC2)n3C)c(=O)c1` [Example 1m64, 3-Chloro-N,N-dimethyl-4-[1-[[1-methyl-4-[4-(methylamino)-2-oxo-1-pyridyl]pyrrolo[2,3-b]pyridin-2-yl]methyl]-3,6-dihydro-2H-pyridin-4-yl]benzamide] came in with a Kd of 12 nM. Further, in assay [2], the EC50 amounted to 170 nM.

In the case of `CNc1ccn(-c2ccnc3c2cc(CN2CC=C(c4ncc(C(=O)N(C)C)cc4F)CC2)n3C)c(=O)c1` [Example 1m67, 5-Fluoro-N,N-dimethyl-6-[1-[[1-methyl-4-[4-(methylamino)-2-oxo-1-pyridyl]pyrrolo[2,3-b]pyridin-2-yl]methyl]-3,6-dihydro-2H-pyridin-4-yl]pyridine-3-carboxamide], binding in assay [1] was characterised by a dissociation constant (Kd) of 33.4 nM. The EC50 in assay [2] stood at 80.1 nM.
